Measured values published in ChEMBL document CHEMBL1150118, “Agonodepsides a and B: two new depsides from a filamentous fungus F7524” (J Nat Prod, 2002).
Active and inactive are the calls of the source. No cut-off for these calls is given here.

Legend:
[1] = target: T1, Enoyl-[acyl-carrier-protein] reductase [NADH] (Mycobacterium tuberculosis) (UniProt P9WGR1); test: inhibition of Mycobacterium tuberculosis InhA at 100 uM after 20 mins by fluorometric assay
T1 sequence (whole entry): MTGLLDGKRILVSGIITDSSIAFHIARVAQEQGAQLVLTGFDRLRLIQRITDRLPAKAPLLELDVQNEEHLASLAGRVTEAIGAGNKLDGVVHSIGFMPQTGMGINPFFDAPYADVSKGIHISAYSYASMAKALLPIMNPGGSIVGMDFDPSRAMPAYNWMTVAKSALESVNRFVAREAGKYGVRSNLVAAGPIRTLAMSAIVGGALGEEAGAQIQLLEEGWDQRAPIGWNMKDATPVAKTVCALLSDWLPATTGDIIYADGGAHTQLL

[2] = target: T2, Enoyl-[acyl-carrier-protein] reductase [NADH] (Mycobacterium tuberculosis, UniProt P9WGR1); test: inhibition of Mycobacterium tuberculosis InhA after 20 mins by fluorometric assay
T2 sequence (P9WGR1 whole entry): T1 sequence (whole entry)

| Compound | Activity [1] | IC50 [2] |
| --- | --- | --- |
| C/C=C(\C)c1cc(O)c(C)c(O)c1C(=O)Oc1cc(/C(C)=C/C)c(C(=O)O)c(O)c1C | inactive | – |
| C/C=C(\C)c1cc(O)c(C)c(OC(=O)c2c(/C(C)=C/C)cc(O)c(C)c2O)c1 [AGONODEPSIDE A] | – | 75 µM |
